# Legend:
# [1] = tested on: Human mesenchymal stem cells (MSC); assay: Adipogenic differentiation of human mesenchymal stem cells; format: cell-based
# From the text: Figure 2 Effect of VCE-003.2 on adipogenic differentiation. Human mesenchymal stem cells (MSC) were differentiated in adipogenic medium (AM) in the presence of RZG or […] VCE-003.2 and adipogenic markers were characterized. (a) Quantification of oil red (ORO) positive cells after 21 days of differentiation. (b) Representative images of accumulated fat vesicles stained with oil red (Bar size, 50 μm). (c) Gene expression of PPAR-γ2, LPL, CEBPA, ADIPOQ and FABP4 in MSCs differentiated during 18 days. Data represent the percentage of increase over AM considered as the 100% of adipogenic induction. Experiments were performed from three different human MSC preparations each one obtained from a different bone marrow sample.
# Reina Sofia University Hospital review board.
# [2] = tested on: 3NP-lesioned C57BL/6 mice; assay: 3-nitropropionic acid (3NP) model of Huntington's disease; format: in vivo; conditions: for COX-2 (2expΔΔct) / IL-6 (2expΔΔct) / TNF-α (2expΔΔct): striatum mRNA; for % GSH / % SOD activity / %Catalase activity: striatum
# Description: Figure 7 VCE-003.2 is neuroprotective in 3NP-intoxicated mice. (a) Behavioural score was determined 12 hours after 3NP intoxication. Mice were treated with VCE-003.2 (20 mg/Kg) alone or combined with T0070907 (5 mg/kg) as indicated. Animals were also treated separately with either VCE-003.2 or T0070907 alone. Hind limb clasping, general locomotor activity, hind limb dystonia and kyphosis were rated from 0 to 2 based on severity (score 0 indicates normal function and 2 indicates the most severe affected function). Values are expressed as means ± SEM (n = 6). (b) Representative images of Nissl staining performed on coronal striatal brain sections from the same mice groups. Photomicrographs of NeuN (Bar size, 50 μm) Iba-1 and glial fibrillary acidic protein (GFAP) immunostained sections through the different group of mice are also shown. (c) Quantification of the different markers was performed with Image J software. Total average number of neurons (NeuN^+), microglia (Iba1^+) and astrocytes (GFAP^+) is shown. Values are expressed as means ± SEM (n = 6). *p < 0.05, **p < 0.01, ***p < 0.001 vs. Vehicle; ^#p < 0.05, ^##p < 0.01, ^###p < 0.001 vs. 3NP; †p < 0.05, ^††p < 0.01, ^†††p < 0.001 vs. the 3NP + VCE-003.2 group.
# Mice were housed under standard conditions (12-h light/dark cycle) in groups with access to food and water ad libitum. All experiments were performed in accordance with European Union guideline and approved by the Animal Research Ethic Committee of Córdoba University (2014PI/017) (3NP model) and by the Animal Research Ethic Committee of Complutense University (CEA-UCM 73/2012) (QA model). Procedures were designed to minimize the number of animals used and their suffering. Excitotoxicity was induced by intrastriatal quinolinic acid (QA) administration (100 nmol in 1 μL PBS solution, unilaterally) as previously described[41] at the following coordinates: +0.6 posterior to bregma, +1.85 medio-lateral and -2.7 dorso-ventral to dura, in 12-week-old CD1 male mice (Harlan Ibérica, Barcelona, Spain). Pharmacological manipulation with VCE-003.2 (10 mg/kg body weight) was performed i.p. daily in 2% Tween 20 and 3% DMSO in saline buffer until sacrifice. Control animals received the corresponding vehicle injections. Motor function was assessed by RotaRod analysis conducted with acceleration from 4 to 40 rpm over a period of 570 s in an LE8200 device (Harvard Apparatus, Barcelona, Spain). […] 3NP-treated animals and their respective non-lesioned controls (injected with PBS) were used for pharmacological studies with VCE-003.2. Treatments consisted of 4 i.p. injections every 24 h with 20 mg/kg VCE-003.2 or vehicle (4% DMSO plus 6,2% Tween 20 in saline buffer), with the first and the last injections 30 min before the first and the last injections of 3NP, respectively. In some experiments, mice received a combination of VCE-003.2 and the PPARγ antagonist T0070907 (5 mg/kg) injected 15 minutes before VCE-003.2. In 3NP-lesioned mice, motor activity, hindlimb clasping, dystonia, and truncal dystonia were evaluated following previously described procedures. All behavioural tests were conducted prior to drug injections to avoid acute effects of the compounds under investigation and all animals were euthanized 12 h after the last injection of 3NP and their brains removed. The right hemispheres were used to dissect the striatum which was frozen in RNAlater (Sigma-Aldrich) and stored at −80 °C for biochemical analyses. The left hemispheres were fixed in fresh 4% paraformaldehyde (in 0.1 M PBS) for 48 h at 4 °C and embedded in paraffin wax for staining and immunohistochemical analysis. In all experiments, at least 6 animals were used per experimental group.
# Free floating coronal brain slices ([…]) were processed as previously described. […]
# [3] = biological target: T1, CB2 receptor (Homo sapiens, UniProt P34972); assay: CB2 receptor binding, [3H]CP55940 competition; conditions: data not shown; read-out: predicted Ki, CB2 receptor
# T1 construct: purchased Perkin-Elmer Life and Analytical Sciences, Boston, MA; host or cells: HEK293 EBNA cells stably expressing the receptor
# T1 sequence (P34972 whole entry): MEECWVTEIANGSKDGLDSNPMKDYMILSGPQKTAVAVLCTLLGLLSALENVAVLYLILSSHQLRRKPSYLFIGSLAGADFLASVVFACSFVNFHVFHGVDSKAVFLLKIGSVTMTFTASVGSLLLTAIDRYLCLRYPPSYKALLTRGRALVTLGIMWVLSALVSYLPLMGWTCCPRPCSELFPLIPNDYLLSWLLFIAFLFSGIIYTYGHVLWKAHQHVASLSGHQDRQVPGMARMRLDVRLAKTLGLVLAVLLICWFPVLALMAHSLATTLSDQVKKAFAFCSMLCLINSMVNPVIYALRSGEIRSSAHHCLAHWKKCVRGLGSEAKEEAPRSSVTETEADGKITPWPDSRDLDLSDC
# Description: CB1 and CB2 receptor binding affinities were determined by competition studies using [^3H]CP55940 as radioligand and commercial membrane preparations of HEK293 EBNA cells stably expressing the respective receptor type (Perkin-Elmer Life and Analytical Sciences, Boston, MA), following a procedure previously described.
# [4] = 3NP-lesioned mice, + T0070907 5 mg/kg
# [5] = 3NP-treated mice, VCE-003.2 20 mg/kg
# [6] = 3NP-treated mice, VCE-003.2 20 mg/kg + T0070907 5 mg/kg
# [7] = substance alone, mean ± SEM n=6
# [8] = 3NP-treated mice, VCE-003.2 20 mg/kg, % of vehicle control
# [9] = substance alone, % of vehicle-treated control
structure (smiles),measurement,setting,value
CCCCCC1=C(NCC)C(=O)C(C/C=C(\C)CCC=C(C)C)=C(O)C1=O [VCE-003.2],percentage of Oil Red O positive cells,"[1]; 1 and 2.5 μM vs 1 μM RZG, adipogenic medium, 21 days",never achieved the percentage of Oil Red O positive cells (ORO^+) induced by RZG
same,lipid droplets (morphological examination),[1]; compared to RZG,lipid droplets are less numerous and smaller
same,"expression of adipogenic differentiation markers PPARγ, LPL, CEBPA, ADIPOQ, FABP4",[1]; compared to cells treated with RZG,sensibly lower
same,loss of Nissl and NeuN+ cells in striatum,"[2]; 3NP-lesioned mice, 20 mg/kg",rescued the loss of Nissl and NeuN^+-cells
same,"microgliosis and astrogliosis (Iba1, GFAP)","[2]; 3NP-lesioned mice, 20 mg/kg",reduced 3NP-induced microgliosis and astrogliosis
same,"motor deficits: hindlimb clasping, dystonia, kyphosis","[2]; 3NP-lesioned mice, 20 mg/kg i.p.","improved the motor deficits of 3NP-lesioned mice by reducing hindlimb clasping, dystonia and kyphosis"
same,effect on motor deficits with PPARγ antagonist co-administered,[2]; [4],abrogated
same,"neuroprotective activity (Nissl, NeuN) with T0070907 co-administered",[2]; [4],prevented the activity of VCE-003.2
same,"behavioural score, substance alone",[2]; mice given the substance alone,Neither VCE-003.2 nor T0070907 alone influenced the behavior of the animals
same,COX-2 (2expΔΔct),[2]; [5],2.7 ± 0.07^### 2expΔΔct
same,IL-6 (2expΔΔct),[2]; [5],1.79 ± 0.2^### 2expΔΔct
same,TNF-α (2expΔΔct),[2]; [5],1.56 ± 0.576^## 2expΔΔct
same,COX-2 (2expΔΔct),[2]; [6],8.91 ± 1^† 2expΔΔct
same,IL-6 (2expΔΔct),[2]; [6],8.18 ± 2.9 2expΔΔct
same,TNF-α (2expΔΔct),[2]; [6],3.83 ± 1.17 2expΔΔct
same,COX-2 (2expΔΔct),[2]; [7],1.31 ± 0.75 2expΔΔct
same,IL-6 (2expΔΔct),[2]; [7],1.14 ± 0.65 2expΔΔct
same,TNF-α (2expΔΔct),[2]; [7],1.15 ± 058 2expΔΔct
same,% GSH,[2]; [6],121.48 ± 15.29%
same,% SOD activity,[2]; [6],121.46 ± 37.04%
same,%Catalase activity,[2]; [6],89.08 ± 5.7%
same,% GSH,[2]; [8],111.7 ± 12.6%
same,% SOD activity,[2]; [8],221.18 ± 26.91^# %
same,%Catalase activity,[2]; [8],88.82 ± 6.75^# %
same,% GSH,[2]; [9],101.81 ± 14.59%
same,% SOD activity,[2]; [9],115.62 ± 27.34%
same,%Catalase activity,[2]; [9],99.05 ± 6.1%
same,Ki,[3],> 40 µM

# Reference: paper PMC4949444 (Scientific Reports, 2016)
